Data taken from patent US5173481A, “Preparation of specifically substituted cyclodextrins” (The United States of America as represented by the …, priority 1990, dated 1992).
Converted amounts (≈) assume the structure as drawn.

What was measured:
Solubility in water = settings: for solubility: water
[1] = Solubility in water in the presence of excess toluene; type: physicochemical; settings: excess of toluene added to the aqueous phase; relative to 3.2 mg/ml in water
Method: The suspension obtained upon cooling a neutralization of reaction mixture was concentrated to 600 ml and dialyzed for 7 h at room temperature. The retained suspension (.intg.700 ml) was stirred with toluene (10 ml) for 14 h, water (500 ml) was added, stirred for 15 min, and filtered. The residue was suspended in water (1.25 L), stirred for 1 h, and filtered. The combined filtrates were concentrated to 200 ml, refrigerated overnight, the sclid was collected by filtration, and recrystallized from hot water to yield white crystals of the product. Rf 0.25 (1-propanol-water-ethyl acetate-ammonium hydroxide, 6:3:1:1), FIG. 1. M.P. 292°-293° C. MS (FAB+) m/e 1193.2 (M+H^+), 1210.3 (M+H2 O). MS (FAB-) m/e 1191.1 (M-H^+), 1210.2 (M+H2 O). MS (^252 Cf) m/e 1215.8 (M+Na^+). ^1 H-NMR (D2 O) δ5.30-5.23 and 5.17- 5.05 (m, 7H, H-1), 4.16-3.40 (m, 45H), 1.17 (d, J=6.42, 3H, CH3). Anal. for C45 H76 O36 ·3H2 O; calcd. C 43.30, H 6.58; found C 43.31, H 6.43.

Row | Molecule | solubility (Solubility in water) [µg/mL] | further results
1 | Mono[(S)-2-Hydroxypropyl]-α-Cyclodextrin |  | solubility in water: > 50%
2 | OC[C@H](O)CO[C@H]1[C@H]2O[C@H]3[C@H](O)[C@@H](O)[C@@H](O[C@H]4[C@H](O)[C@@H](O)[C@@H](O[C@H]5[C@H](O)[C@@H](O)[C@@H](O[C@H]6[C@H](O)[C@@H](O)[C@@H](O[C@H]7[C@H](O)[C@@H](O)[C@@H](O[C@H]8[C@H](O)[C@@H](O)[C@@H](O[C@@H]([C@@H]1O)[C@@H](CO)O2)O[C@@H]8CO)O[C@@H]7CO)O[C@@H]6CO)O[C@@H]5CO)O[C@@H]4CO)O[C@@H]3CO [2-O-[(S)-2', 3'-Dihydroxypropyl-β-cyclodextrin] | 12000 (≈ 9.93 mM) | 
3 | C[C@H](O)CO[C@H]1[C@H]2O[C@H]3[C@H](O)[C@@H](O)[C@@H](O[C@H]4[C@H](O)[C@@H](O)[C@@H](O[C@H]5[C@H](O)[C@@H](O)[C@@H](O[C@H]6[C@H](O)[C@@H](O)[C@@H](O[C@H]7[C@H](O)[C@@H](O)[C@@H](O[C@H]8[C@H](O)[C@@H](O)[C@@H](O[C@@H]([C@@H]1O)[C@@H](CO)O2)O[C@@H]8CO)O[C@@H]7CO)O[C@@H]6CO)O[C@@H]5CO)O[C@@H]4CO)O[C@@H]3CO [2-O-[(S)-2'-Hydroxypropyl]-β-cyclodextrin] | 3200 (≈ 2.68 mM) | solubility in water with excess of toluene added [1]: only insignificantly changed
4 | CC(O)CO[C@H]1[C@H]2O[C@H]3[C@H](O)[C@@H](O)[C@@H](O[C@H]4[C@H](O)[C@@H](O)[C@@H](O[C@H]5[C@H](O)[C@@H](O)[C@@H](O[C@H]6[C@H](O)[C@@H](O)[C@@H](O[C@H]7[C@H](O)[C@@H](O)[C@@H](O[C@H]8[C@H](O)[C@@H](O)[C@@H](O[C@@H]([C@@H]1O)[C@@H](CO)O2)O[C@@H]8CO)O[C@@H]7CO)O[C@@H]6CO)O[C@@H]5CO)O[C@@H]4CO)O[C@@H]3CO (stereo partly drawn) [2-O-[(RS)-2'-Hydroxypropyl]-β-cyclodextrin] | 4000 (≈ 3.35 mM) | 
5 | C[C@@H](O)CO[C@H]1[C@H]2O[C@H]3[C@H](O)[C@@H](O)[C@@H](O[C@H]4[C@H](O)[C@@H](O)[C@@H](O[C@H]5[C@H](O)[C@@H](O)[C@@H](O[C@H]6[C@H](O)[C@@H](O)[C@@H](O[C@H]7[C@H](O)[C@@H](O)[C@@H](O[C@H]8[C@H](O)[C@@H](O)[C@@H](O[C@@H]([C@@H]1O)[C@@H](CO)O2)O[C@@H]8CO)O[C@@H]7CO)O[C@@H]6CO)O[C@@H]5CO)O[C@@H]4CO)O[C@@H]3CO [2-O-[(R)-2'-Hydoxypropy]-β-cyclodextrin] | 7500 (≈ 6.29 mM) | 
6 | CC(O)CO[C@H]1[C@H]2O[C@H]3[C@H](O)[C@@H](O)[C@@H](O[C@H]4[C@H](O)[C@@H](O)[C@@H](O[C@H]5[C@H](O)[C@@H](O)[C@@H](O[C@H]6[C@H](O)[C@@H](O)[C@@H](O[C@H]7[C@H](O)[C@@H](O)[C@@H](O[C@H]8[C@H](O)[C@@H](O)[C@@H](O[C@@H]([C@@H]1O)[C@@H](CO)O2)O[C@@H]8CO)O[C@@H]7CO)O[C@@H]6CO)O[C@@H]5CO)O[C@@H]4CO)O[C@@H]3CO (stereo partly drawn) [2-O-(2-hydroxypropyl)-β-cyclodextrin] |  | solubility (qualitative) (Solubility in water; inferred as probable reason for easy isolation): very low solubility
